From PubChem BioAssay (NCI)
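In this assay, cells in 96-well plates receive the compound at five concentrations for 48 hours. Endpoints are linearly interpolated between the surrounding concentrations. GI50 is the concentration that inhibits growth by half. At the TGI there is no net growth.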

Legend:
Test in all cases: growth of human tumour cells (NCI), 48 h
[1] = system: OVCAR-5 ovarian
[2] = system: OVCAR-8 ovarian
[3] = system: K-562 leukemia
[4] = system: SNB-19 CNS
[5] = system: RXF 393 renal
[6] = system: SW-620 colon
[7] = system: SF-539 CNS
[8] = system: HCT-116 colon
[9] = system: MDA-MB-435
[10] = system: HOP-62 NSCLC
[11] = system: U251 CNS
[12] = system: ACHN renal
[13] = system: IGROV1 ovarian
[14] = system: EKVX NSCLC
[15] = system: DU-145 prostate
[16] = system: SN12C renal
[17] = system: SF-295 CNS
[18] = system: NCI-H460 lung
[19] = system: UO-31 renal
[20] = system: NCI-H23 lung
[21] = system: HT29 colon
[22] = system: PC-3 prostate
[23] = system: SNB-75 CNS
[24] = system: LOX IMVI melanoma
[25] = system: CAKI-1 renal
[26] = system: NCI/ADR-RES ovarian
[27] = system: HCC-2998 colon
[28] = system: A498 renal
[29] = system: TK-10 renal
[30] = system: KM12 colon
[31] = system: BT-549 breast
[32] = system: OVCAR-4 ovarian
[33] = system: HOP-92 NSCLC
[34] = system: NCI-H522 lung
[35] = system: RPMI-8226 leukemia
[36] = system: SK-MEL-2 melanoma
[37] = system: HCT-15 colon
[38] = system: SK-MEL-28 melanoma
[39] = system: UACC-62 melanoma
[40] = system: SK-OV-3 ovarian
[41] = system: 786-0 renal
[42] = system: HL-60(TB) leukemia
[43] = system: M14 melanoma
[44] = system: MALME-3M melanoma
[45] = system: NCI-H226 lung
[46] = system: SF-268 CNS
[47] = system: A549 NSCLC
[48] = system: HS 578T breast
[49] = system: MDA-MB-231 breast

## Fc1cccc(Cl)c1/C=N/Nc1nc(N/N=C/c2c(F)cccc2Cl)nc(N2CCCCC2)n1
[1]
  GI50: 3.8 µM
  TGI: > 100 µM
[2]
  GI50: 3.89 µM
  TGI: > 100 µM
[3]
  GI50: 3.08 µM
  TGI: > 100 µM
[4]
  GI50: 3.25 µM
  TGI: 18 µM
[5]
  GI50: 2.65 µM
  TGI: 11.5 µM
[6]
  GI50: 3.51 µM
  TGI: > 100 µM
[7]
  GI50: 7.65 µM
  TGI: 24.3 µM
[8]
  GI50: 2.83 µM
  TGI: 11.9 µM
[9]
  GI50: 2.86 µM
  TGI: > 100 µM
[10]
  GI50: 2.85 µM
  TGI: 12 µM
[11]
  GI50: 3.56 µM
  TGI: 22.5 µM
[12]
  GI50: 3.04 µM
  TGI: 12.8 µM
[13]
  GI50: 3.16 µM
  TGI: > 100 µM
[14]
  GI50: 1.54 µM
  TGI: > 100 µM
[15]
  GI50: 11.7 µM
  TGI: > 100 µM
[16]
  GI50: 2.85 µM
  TGI: > 100 µM
[17]
  GI50: 1.01 µM
  TGI: 10.7 µM
[18]
  GI50: 3.14 µM
  TGI: > 100 µM
[19]
  GI50: 2.01 µM
  TGI: > 100 µM
[20]
  GI50: 3.42 µM
  TGI: 16.8 µM
[21]
  GI50: 2.9 µM
  TGI: > 100 µM
[22]
  GI50: 2.06 µM
  TGI: > 100 µM
[23]
  GI50: 2.36 µM
  TGI: 10.5 µM
[24]
  GI50: 3.77 µM
  TGI: > 100 µM
[25]
  GI50: 3.01 µM
  TGI: 15.5 µM
[26]
  GI50: 2.76 µM
  TGI: > 100 µM
[27]
  GI50: 3.68 µM
  TGI: > 100 µM
[28]
  GI50: 2.4 µM
  TGI: 13.2 µM
[29]
  GI50: 3.73 µM
  TGI: 9.11 µM
[30]
  GI50: 2.93 µM
  TGI: > 100 µM
[31]
  GI50: 4.45 µM
  TGI: 20.9 µM
[32]
  GI50: 2.58 µM
  TGI: > 100 µM
[33]
  GI50: 1.47 µM
  TGI: 5.36 µM
[34]
  GI50: 2.57 µM
  TGI: 9.68 µM
[35]
  GI50: 2.26 µM
  TGI: > 100 µM
[36]
  GI50: 1.69 µM
  TGI: 3.91 µM
[37]
  GI50: 2.82 µM
  TGI: > 100 µM
[38]
  GI50: 3.41 µM
  TGI: > 100 µM
[39]
  GI50: 2.35 µM
  TGI: 9.5 µM
[40]
  GI50: 3.65 µM
  TGI: 15.4 µM
[41]
  GI50: 3.44 µM
  TGI: 14.7 µM
[42]
  GI50: 2 µM
  TGI: > 100 µM
[43]
  GI50: 2.4 µM
  TGI: 9 µM
[44]
  GI50: 2.21 µM
  TGI: 6.26 µM
[45]
  GI50: 6.48 µM
  TGI: > 100 µM
[46]
  GI50: 4.22 µM
  TGI: 52.9 µM
[47]
  GI50: 3.04 µM
  TGI: > 100 µM
[48]
  GI50: 2.44 µM
  TGI: 15.4 µM
[49]
  GI50: 7.65 µM
  TGI: 24.4 µM
